According to the NIST ThermoML archive (doi:10.1021/je800756r):
“And” between values parts separate entries of the source, which are not always exact repeats. Equal entries are not always repeated.

Experiment: xn = mol fraction of the nth substance listed
Conditions: Capillary rise

FCF [difluoromethane] + CCC
Conditions	surface tension liquid-gas
280 K, x2 = 0.01	9.7 mN/m
280 K, x2 = 0.013	9.4 mN/m
280 K, x2 = 0.037	9.5 mN/m
280 K, x2 = 0.07	9 mN/m
280 K, x2 = 0.087	8.7 mN/m
280 K, x2 = 0.092	8.4 mN/m
280 K, x2 = 0.115	8.5 mN/m
280 K, x2 = 0.12	8.4 mN/m
280 K, x2 = 0.121	8 mN/m
280 K, x2 = 0.123	8.2 mN/m
280 K, x2 = 0.124	8.2 mN/m
280 K, x2 = 0.131	7.9 mN/m
280 K, x2 = 0.141	8 mN/m
280 K, x2 = 0.515	6.4 mN/m
280 K, x2 = 0.588	6.5 mN/m
280 K, x2 = 0.605	6.5 mN/m
280 K, x2 = 0.648	6.8 mN/m and 6.7 mN/m
280 K, x2 = 0.662	6.8 mN/m
280 K, x2 = 0.682	6.8 mN/m
280 K, x2 = 0.697	7 mN/m
280 K, x2 = 0.706	7.1 mN/m
280 K, x2 = 0.729	7.1 mN/m
280 K, x2 = 0.755	7.4 mN/m
280 K, x2 = 0.775	7.4 mN/m
280 K, x2 = 0.813	7.8 mN/m
280 K, x2 = 0.826	7.8 mN/m
280 K, x2 = 0.898	8.4 mN/m
280 K, x2 = 0.931	8.8 mN/m
280 K, x2 = 0.942	8.9 mN/m
280 K, x2 = 0.968	9.1 mN/m
290 K, x2 = 0.002	8.1 mN/m
290 K, x2 = 0.003	8 mN/m
290 K, x2 = 0.004	8 mN/m
290 K, x2 = 0.005	7.9 mN/m
290 K, x2 = 0.039	7.5 mN/m
290 K, x2 = 0.065	7.2 mN/m
290 K, x2 = 0.078	7 mN/m
290 K, x2 = 0.081	7.2 mN/m
290 K, x2 = 0.09	7.1 mN/m
290 K, x2 = 0.095	6.9 mN/m
290 K, x2 = 0.097	6.9 mN/m
290 K, x2 = 0.114	6.6 mN/m
290 K, x2 = 0.143	6.5 mN/m
290 K, x2 = 0.156	6.3 mN/m
290 K, x2 = 0.175	5.9 mN/m
290 K, x2 = 0.185	5.9 mN/m
290 K, x2 = 0.198	6 mN/m
290 K, x2 = 0.209	5.7 mN/m
290 K, x2 = 0.485	5 mN/m
290 K, x2 = 0.506	4.9 mN/m
290 K, x2 = 0.525	5 mN/m
290 K, x2 = 0.539	5.1 mN/m
290 K, x2 = 0.58	5.1 mN/m
290 K, x2 = 0.596	5.1 mN/m
290 K, x2 = 0.604	5.2 mN/m
290 K, x2 = 0.648	5.6 mN/m
290 K, x2 = 0.691	5.9 mN/m
290 K, x2 = 0.768	6.1 mN/m
290 K, x2 = 0.805	6.4 mN/m
290 K, x2 = 0.896	7 mN/m
290 K, x2 = 0.917	7.3 mN/m
290 K, x2 = 0.925	7.4 mN/m
290 K, x2 = 0.975	7.7 mN/m
290 K, x2 = 0.986	7.9 mN/m
290 K, x2 = 0.999	8.1 mN/m
300 K, x2 = 0.02	6 mN/m
300 K, x2 = 0.045	5.7 mN/m
300 K, x2 = 0.087	5.4 mN/m
300 K, x2 = 0.11	5.2 mN/m
300 K, x2 = 0.12	5 mN/m
300 K, x2 = 0.124	5 mN/m
300 K, x2 = 0.149	4.6 mN/m
300 K, x2 = 0.154	4.7 mN/m
300 K, x2 = 0.22	4.1 mN/m
300 K, x2 = 0.573	4 mN/m
300 K, x2 = 0.682	4.5 mN/m
300 K, x2 = 0.692	4.7 mN/m
300 K, x2 = 0.703	4.7 mN/m
300 K, x2 = 0.744	4.9 mN/m
300 K, x2 = 0.748	5.1 mN/m
300 K, x2 = 0.761	5 mN/m
300 K, x2 = 0.771	5.1 mN/m
300 K, x2 = 0.782	5.1 mN/m
300 K, x2 = 0.79	5.2 mN/m
300 K, x2 = 0.824	5.5 mN/m
300 K, x2 = 0.834	5.4 mN/m
300 K, x2 = 0.838	5.5 mN/m
300 K, x2 = 0.852	5.6 mN/m
300 K, x2 = 0.865	5.8 mN/m
300 K, x2 = 0.881	5.8 mN/m
300 K, x2 = 0.893	6 mN/m
300 K, x2 = 0.897	5.9 mN/m
300 K, x2 = 0.911	6 mN/m
300 K, x2 = 0.918	6.2 mN/m
300 K, x2 = 0.938	6.4 mN/m
300 K, x2 = 0.982	6.8 mN/m
300 K, x2 = 0.994	6.7 mN/m
300 K, x2 = 0.999	6.9 mN/m
